Assay [1] concerns the target Histone-lysine N-methyltransferase, H3 lysine-36 specific (Homo sapiens, UniProt Q96L73). The experiment in a line: Inhibition of NSD1-SET (unknown origin).
Assay [2] concerns the target DNA (cytosine-5)-methyltransferase 3A (Homo sapiens, UniProt Q9Y6K1). In words: Inhibition of DNMT3A (unknown origin).
Assay [3] addresses DNA (cytosine-5)-methyltransferase 1 (Homo sapiens, UniProt P26358). The experiment in a line: Inhibition of DNMT1 (unknown origin).
In another assay the test system is U2OS. In words: Antiproliferative activity against human U2OS cells.
Assay [4] deals with Protein cereblon/Histone-lysine N-methyltransferase NSD2 (Homo sapiens, UniProt O96028+Q96SW2). In words: PROTAC activity at CRBN/NSD2 in human VCaP cells assessed as induction of NSD2 degradation incubated for 24 hrs by immunoblot analysis. In kind it is cell-based.
Protein cereblon/Histone-lysine N-methyltransferase NSD2, sequence (Q96SW2 whole entry, one chain of several): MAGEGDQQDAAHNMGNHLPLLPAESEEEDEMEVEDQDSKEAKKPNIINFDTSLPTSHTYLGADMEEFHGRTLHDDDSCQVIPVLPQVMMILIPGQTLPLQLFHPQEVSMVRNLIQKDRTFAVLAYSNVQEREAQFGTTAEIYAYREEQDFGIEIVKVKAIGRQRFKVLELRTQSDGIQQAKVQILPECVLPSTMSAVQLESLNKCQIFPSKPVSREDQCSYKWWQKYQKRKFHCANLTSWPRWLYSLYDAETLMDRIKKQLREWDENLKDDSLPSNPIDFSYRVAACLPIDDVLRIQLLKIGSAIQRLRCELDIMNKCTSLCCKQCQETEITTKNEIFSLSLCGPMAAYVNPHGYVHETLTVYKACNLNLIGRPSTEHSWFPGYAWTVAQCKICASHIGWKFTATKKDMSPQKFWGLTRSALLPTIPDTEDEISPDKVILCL
In assay [5] the target is T1, Histone-lysine N-methyltransferase NSD2 (Homo sapiens, UniProt O96028).
T1 sequence (O96028 whole entry): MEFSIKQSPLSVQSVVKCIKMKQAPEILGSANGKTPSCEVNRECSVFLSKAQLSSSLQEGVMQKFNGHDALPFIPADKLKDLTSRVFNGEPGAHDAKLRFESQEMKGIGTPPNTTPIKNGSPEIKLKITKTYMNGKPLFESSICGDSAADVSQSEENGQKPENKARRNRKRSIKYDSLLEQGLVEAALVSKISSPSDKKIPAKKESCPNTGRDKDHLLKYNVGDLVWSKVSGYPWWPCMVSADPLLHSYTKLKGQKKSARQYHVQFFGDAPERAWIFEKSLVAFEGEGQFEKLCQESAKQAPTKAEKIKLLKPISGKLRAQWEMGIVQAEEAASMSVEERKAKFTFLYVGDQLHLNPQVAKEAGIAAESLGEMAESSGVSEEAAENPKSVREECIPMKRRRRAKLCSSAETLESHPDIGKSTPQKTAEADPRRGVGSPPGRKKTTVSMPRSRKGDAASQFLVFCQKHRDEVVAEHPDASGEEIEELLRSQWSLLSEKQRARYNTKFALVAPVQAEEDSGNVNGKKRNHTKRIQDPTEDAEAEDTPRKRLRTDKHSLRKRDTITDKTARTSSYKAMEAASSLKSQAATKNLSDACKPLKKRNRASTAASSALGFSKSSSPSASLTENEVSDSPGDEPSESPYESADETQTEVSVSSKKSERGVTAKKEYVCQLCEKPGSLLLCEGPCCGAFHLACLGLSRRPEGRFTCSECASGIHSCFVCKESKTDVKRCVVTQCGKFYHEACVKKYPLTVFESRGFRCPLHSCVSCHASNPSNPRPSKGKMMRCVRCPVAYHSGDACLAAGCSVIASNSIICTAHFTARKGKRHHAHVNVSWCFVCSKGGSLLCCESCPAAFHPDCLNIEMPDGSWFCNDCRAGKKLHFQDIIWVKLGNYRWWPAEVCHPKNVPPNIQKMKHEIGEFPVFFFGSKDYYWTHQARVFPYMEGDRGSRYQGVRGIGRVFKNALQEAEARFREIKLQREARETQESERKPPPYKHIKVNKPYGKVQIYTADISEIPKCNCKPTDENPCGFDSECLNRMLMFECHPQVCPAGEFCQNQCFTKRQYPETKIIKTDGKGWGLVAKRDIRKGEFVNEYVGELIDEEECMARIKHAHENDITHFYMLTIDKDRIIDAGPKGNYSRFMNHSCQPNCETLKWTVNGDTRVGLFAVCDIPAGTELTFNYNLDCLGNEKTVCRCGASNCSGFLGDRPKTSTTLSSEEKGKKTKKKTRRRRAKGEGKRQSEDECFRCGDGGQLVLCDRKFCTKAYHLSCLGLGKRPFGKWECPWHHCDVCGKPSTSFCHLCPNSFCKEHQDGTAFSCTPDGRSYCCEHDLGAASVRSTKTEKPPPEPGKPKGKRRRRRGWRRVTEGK
The experiment in a line: Inhibition of NSD2-SET domain (unknown origin).

Consider 19 compounds from ChEMBL document CHEMBL6074654, “Inhibitors targeting the PWWP domain-containing proteins” (Eur J Med Chem, 2024).

pIC50: −log10 of the molar value.

The pIC50 is −log10 of the IC50, conventionally taken in molar units. Higher therefore signals a low IC50. A word on the DC50: it is the concentration at which degradation of the target reaches its halfway point.

DNA (cytosine-5)-methyltransferase 1, sequence (P26358 whole entry): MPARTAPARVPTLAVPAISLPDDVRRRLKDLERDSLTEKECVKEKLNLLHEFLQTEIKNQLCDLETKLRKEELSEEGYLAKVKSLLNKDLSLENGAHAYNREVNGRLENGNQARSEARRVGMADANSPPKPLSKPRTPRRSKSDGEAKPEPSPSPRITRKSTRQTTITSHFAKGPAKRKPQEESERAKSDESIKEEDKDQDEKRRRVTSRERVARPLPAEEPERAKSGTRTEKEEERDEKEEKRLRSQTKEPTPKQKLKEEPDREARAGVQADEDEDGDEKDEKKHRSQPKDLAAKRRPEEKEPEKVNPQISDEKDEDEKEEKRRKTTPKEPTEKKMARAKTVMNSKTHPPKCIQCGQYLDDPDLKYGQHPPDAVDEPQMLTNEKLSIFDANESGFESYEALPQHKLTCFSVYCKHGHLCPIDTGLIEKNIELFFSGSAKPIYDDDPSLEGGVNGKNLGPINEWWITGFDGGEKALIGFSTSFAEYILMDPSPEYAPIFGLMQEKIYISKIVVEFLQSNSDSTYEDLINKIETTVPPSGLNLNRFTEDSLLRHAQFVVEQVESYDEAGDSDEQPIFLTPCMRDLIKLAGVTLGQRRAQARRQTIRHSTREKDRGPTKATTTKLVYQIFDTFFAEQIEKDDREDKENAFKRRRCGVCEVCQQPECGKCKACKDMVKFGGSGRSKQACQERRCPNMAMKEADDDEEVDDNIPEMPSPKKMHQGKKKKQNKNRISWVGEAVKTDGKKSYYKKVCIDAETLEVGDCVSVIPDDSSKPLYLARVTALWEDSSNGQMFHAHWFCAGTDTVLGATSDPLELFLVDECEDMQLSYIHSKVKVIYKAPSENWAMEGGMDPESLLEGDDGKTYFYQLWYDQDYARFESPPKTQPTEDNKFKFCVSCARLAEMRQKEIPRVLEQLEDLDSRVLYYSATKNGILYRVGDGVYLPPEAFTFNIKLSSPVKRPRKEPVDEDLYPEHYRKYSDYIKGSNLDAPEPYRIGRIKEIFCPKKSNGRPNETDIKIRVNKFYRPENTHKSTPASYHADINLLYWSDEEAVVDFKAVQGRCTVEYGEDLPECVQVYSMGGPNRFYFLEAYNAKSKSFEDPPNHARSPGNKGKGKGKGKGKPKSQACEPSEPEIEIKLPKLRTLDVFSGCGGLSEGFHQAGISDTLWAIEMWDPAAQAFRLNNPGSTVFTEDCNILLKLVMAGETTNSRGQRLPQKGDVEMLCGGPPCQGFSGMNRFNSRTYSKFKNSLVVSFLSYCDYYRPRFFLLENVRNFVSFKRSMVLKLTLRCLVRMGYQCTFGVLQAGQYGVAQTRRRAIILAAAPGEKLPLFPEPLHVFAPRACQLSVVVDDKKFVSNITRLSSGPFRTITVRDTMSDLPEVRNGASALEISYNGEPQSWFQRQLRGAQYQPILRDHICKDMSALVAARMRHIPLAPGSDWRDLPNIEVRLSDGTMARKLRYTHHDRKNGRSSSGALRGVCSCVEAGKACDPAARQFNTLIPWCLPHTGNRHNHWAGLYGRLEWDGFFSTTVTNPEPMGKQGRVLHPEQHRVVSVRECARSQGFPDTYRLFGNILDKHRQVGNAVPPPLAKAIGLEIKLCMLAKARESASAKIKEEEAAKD
Histone-lysine N-methyltransferase, H3 lysine-36 specific, sequence (Q96L73 whole entry): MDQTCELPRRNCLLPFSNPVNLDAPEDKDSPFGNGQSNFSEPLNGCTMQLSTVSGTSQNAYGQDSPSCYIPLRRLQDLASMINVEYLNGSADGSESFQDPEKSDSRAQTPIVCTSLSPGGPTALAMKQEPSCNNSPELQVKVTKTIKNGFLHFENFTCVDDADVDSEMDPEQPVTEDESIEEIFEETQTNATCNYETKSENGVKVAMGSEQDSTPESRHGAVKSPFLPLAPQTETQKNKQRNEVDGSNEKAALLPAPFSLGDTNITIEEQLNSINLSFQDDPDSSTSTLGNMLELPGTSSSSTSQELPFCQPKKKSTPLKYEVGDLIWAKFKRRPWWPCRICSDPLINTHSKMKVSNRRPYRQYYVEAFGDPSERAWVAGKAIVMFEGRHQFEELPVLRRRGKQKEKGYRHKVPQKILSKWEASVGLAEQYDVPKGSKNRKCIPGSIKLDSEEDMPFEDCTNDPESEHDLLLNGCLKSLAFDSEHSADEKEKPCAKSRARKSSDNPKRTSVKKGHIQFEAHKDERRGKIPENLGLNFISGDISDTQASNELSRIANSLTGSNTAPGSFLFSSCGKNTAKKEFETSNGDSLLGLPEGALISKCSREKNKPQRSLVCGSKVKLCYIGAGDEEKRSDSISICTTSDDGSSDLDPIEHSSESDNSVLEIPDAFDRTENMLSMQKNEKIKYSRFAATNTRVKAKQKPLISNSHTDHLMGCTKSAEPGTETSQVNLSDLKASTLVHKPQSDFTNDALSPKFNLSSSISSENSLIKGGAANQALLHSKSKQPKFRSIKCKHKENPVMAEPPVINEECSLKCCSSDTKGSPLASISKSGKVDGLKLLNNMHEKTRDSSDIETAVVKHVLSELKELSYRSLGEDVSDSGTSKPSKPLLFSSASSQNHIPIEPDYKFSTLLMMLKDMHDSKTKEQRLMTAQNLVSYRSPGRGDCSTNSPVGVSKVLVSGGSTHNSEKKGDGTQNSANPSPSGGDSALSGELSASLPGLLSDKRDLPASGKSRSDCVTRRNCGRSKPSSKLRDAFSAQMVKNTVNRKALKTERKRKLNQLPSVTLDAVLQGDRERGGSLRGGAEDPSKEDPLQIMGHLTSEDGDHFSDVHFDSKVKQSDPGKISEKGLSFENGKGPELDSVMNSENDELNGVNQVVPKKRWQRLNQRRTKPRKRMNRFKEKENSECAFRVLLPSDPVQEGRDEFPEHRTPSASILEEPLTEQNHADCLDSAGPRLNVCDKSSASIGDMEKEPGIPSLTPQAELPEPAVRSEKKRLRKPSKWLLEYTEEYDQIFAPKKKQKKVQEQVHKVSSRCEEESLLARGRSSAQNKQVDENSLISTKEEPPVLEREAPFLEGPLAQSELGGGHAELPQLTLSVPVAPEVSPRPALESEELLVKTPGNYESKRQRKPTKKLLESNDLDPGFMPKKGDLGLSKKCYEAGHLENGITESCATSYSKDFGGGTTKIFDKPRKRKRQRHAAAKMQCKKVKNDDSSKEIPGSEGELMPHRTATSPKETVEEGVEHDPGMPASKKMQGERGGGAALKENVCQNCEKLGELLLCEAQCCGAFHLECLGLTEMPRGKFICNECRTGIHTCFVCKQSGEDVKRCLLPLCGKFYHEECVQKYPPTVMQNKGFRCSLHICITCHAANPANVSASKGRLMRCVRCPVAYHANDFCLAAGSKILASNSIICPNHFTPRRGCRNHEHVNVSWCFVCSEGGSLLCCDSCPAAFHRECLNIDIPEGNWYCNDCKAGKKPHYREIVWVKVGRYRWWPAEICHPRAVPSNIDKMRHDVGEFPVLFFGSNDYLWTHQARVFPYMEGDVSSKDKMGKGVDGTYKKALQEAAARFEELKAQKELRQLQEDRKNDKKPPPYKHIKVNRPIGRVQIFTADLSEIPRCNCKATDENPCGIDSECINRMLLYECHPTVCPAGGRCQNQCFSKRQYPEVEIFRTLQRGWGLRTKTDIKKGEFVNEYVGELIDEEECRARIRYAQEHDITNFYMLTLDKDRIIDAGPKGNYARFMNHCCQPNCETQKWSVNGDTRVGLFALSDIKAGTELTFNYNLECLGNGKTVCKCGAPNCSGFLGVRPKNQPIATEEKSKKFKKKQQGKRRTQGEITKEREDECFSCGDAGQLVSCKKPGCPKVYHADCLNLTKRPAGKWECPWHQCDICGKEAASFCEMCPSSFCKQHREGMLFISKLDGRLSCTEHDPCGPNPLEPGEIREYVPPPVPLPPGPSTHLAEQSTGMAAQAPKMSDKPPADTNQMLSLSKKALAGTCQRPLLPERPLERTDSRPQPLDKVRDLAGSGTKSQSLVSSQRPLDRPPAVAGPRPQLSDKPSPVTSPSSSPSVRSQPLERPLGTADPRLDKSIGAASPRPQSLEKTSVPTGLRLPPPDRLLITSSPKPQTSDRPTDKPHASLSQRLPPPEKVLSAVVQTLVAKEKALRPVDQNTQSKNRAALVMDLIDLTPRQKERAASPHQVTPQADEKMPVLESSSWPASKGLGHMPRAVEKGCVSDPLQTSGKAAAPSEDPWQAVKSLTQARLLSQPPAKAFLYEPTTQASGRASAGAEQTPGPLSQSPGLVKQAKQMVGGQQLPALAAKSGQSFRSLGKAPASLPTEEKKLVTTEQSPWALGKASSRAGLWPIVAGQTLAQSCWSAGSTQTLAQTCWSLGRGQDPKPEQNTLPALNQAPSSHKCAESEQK

For `CN1C[C@H](C(=O)N[C@]2(C)C[C@@]3(O)C4CCCN4C(=O)[C@H](Cc4ccccc4)N3C2=O)C=C2c3cccc4[nH]cc(c34)C[C@H]21` (some centres not stated), the pIC50 in assay [1] is 5.23.

`COc1cc(NC(C)CCCN)c2ncccc2c1` (configuration not stated) [PRIMAQUINE] showed a pIC50 in assay [1] of 5.74.

For `COc1ccc(Cl)cc1C(=O)NCCc1ccc(O)cc1`, the pIC50 in assay [2] is 4.44.

As for `O=C1C=CC(=O)N1CCc1c[nH]c2ccccc12`, the negative logarithm of the IC50 (pIC50) in assay [3] is 4.72; in assay [2] it was 5.49.

`Cc1coc2c1C(=O)C(=O)c1c-2ccc2c(C)cccc12` [TANSHINONE I] gave a negative logarithm of the IC50 (pIC50) in assay [1] of 5.51.

Turning to `C[C@H]1COC2=C1C(=O)C(=O)c1c2ccc2c1CCCC2(C)C` [CRYPTOTANSHINONE], the negative-log IC50 (pIC50) in assay [1] was 5.46. This pIC50 and that of the compound before are within 0.2 log units of each other.

Regarding `Cc1coc2c1C(=O)C(=O)c1c-2ccc2c1CCCC2(C)C` [TANSHINONE IIA], in assay [1], the pIC50 was 5.85. This pIC50 is 0.39 log units higher than that of the compound before.

Consider `O=C1COc2cc(C(=O)N(Cc3ccc(C(=O)Nc4ccncn4)cc3)C3CC3)ccc2N1`, for which, in the assay on U2OS, the pIC50 is 5.92.

In assay [1], `O=C(O)c1ccccc1-c1c2cc(I)c(=O)c(I)c-2oc2c(I)c(O)c(I)cc12` gave a pIC50 of 6.47.

With `CC1=CC(=O)c2c(O)cccc2C1=O` [PLUMBAGIN], the pIC50 in assay [1] was 5.24.

As for `N=C(N)NCCC[C@H](N)C(=O)NCCCCCCNC(=O)c1ccc(NC(=O)c2ccc(CN(C(=O)c3ccc4c(c3)OCC(=O)N4)C3CC3)cc2)cc1`, in assay [4], the DC50 turned out to be 1.2 µM.

As to `CCN(CC)CCNC(=O)c1ccc(NCCCCCCCCCCCCN2C(=O)c3ccccc3C2=O)cc1`, the pIC50 in assay [3] is 5.31; in assay [2] it was 5.09.

As for `O=C(O)C(Cc1c[nH]c2ccccc12)N1C(=O)C=CC1=O` (configuration not stated), the pIC50 in assay [2] is 4.55.

Regarding `CCCN[C@@H](CC[C@H](N)C(=O)O)C[C@@H]1O[C@@H](n2cnc3c(N)ncnc32)[C@H](O)[C@@H]1O`, the pIC50 in assay [5] was 5.48.

In turn, `Cc1cc(/C=C/c2ccc3cc(N(C)C)ccc3[n+]2C)c(C)n1-c1ccccc1` gave a pIC50 in assay [1] of 5.59.

`c1ccc2c(NCCNc3ncnc4cc(OCC5CCN(CCNc6ccnc7ccccc67)CC5)ccc34)cccc2c1`: the negative-log IC50 (pIC50) in assay [3] was 4.70; in assay [2], 6.52.

Compound `O=C1C=CC(=O)c2ccccc21` [NAPHTHOQUINONE] had a pIC50 in assay [1] of 5.70.

Turning to `Oc1cc(/C=N/Nc2nc3ccccc3s2)cc(O)c1O`, in assay [2], the pIC50 is 5.80.

With `CC(C)C[C@H]1C(=O)N2CCCC2[C@]2(O)O[C@](NC(=O)[C@@H]3C=C4c5cccc6[nH]cc(c56)CC4N(C)C3)(C(C)C)C(=O)N12` (some centres not stated), the pIC50 in assay [1] is 5.31.
